Usually TGI stands for the concentration at which net growth stops. The low end stands for more potent growth arrest, the high end for less potent growth arrest. The term GI50 denotes the concentration at which growth is held to half of that of the control.

“And” between values parts separate entries of the source, which are not always exact repeats. Identical values can stand only once.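 Method: 48-hour compound exposure of cells in 96-well plates, five concentrations, linear interpolation of endpoints. GI50 marks 50% less growth. TGI: concentration producing complete growth inhibition.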

Test systems include HOP-62 NSCLC; HOP-92 NSCLC; KM12 colon; NCI/ADR-RES ovarian; OVCAR-8 ovarian; RPMI-8226 leukemia; RXF 393 renal; SF-295 CNS; SR leukemia; SW-620 colon; T-47D breast.
Holding throughout (assay): DTP human tumour cell line panel, 48 h

In the case of `CN(C)S(=O)(=O)c1ccc2[nH]c(O)c(C3=Nc4ccccc4C3=O)c2c1`, the concentration for total growth inhibition (TGI) in the test with HOP-62 NSCLC is 47.2 µM; in the test with HOP-92 NSCLC, 46.8 µM; in the test on KM12 colon, more than 100 µM; with NCI/ADR-RES ovarian it was more than 100 µM; with OVCAR-8 ovarian, more than 100 µM; in the test on RPMI-8226 leukemia, more than 100 µM. Further, the TGI with RXF 393 renal is 14.2 µM; with SF-295 CNS, 26.7 µM; in the test with SR leukemia, 35.9 µM; with SW-620 colon, more than 100 µM; in the test with T-47D breast, more than 100 µM.
Consider `Cc1nn2c(=O)c([N+](=O)[O-])c(/C=C/c3ccc(F)cc3)nc2s1`, for which the TGI in the test with HOP-62 NSCLC was 22.9 µM; in the test on HOP-92 NSCLC, 26.3 µM; in the test with KM12 colon it was 16.3 µM; with NCI/ADR-RES ovarian, 25.1 µM; with OVCAR-8 ovarian, 16 µM; with RPMI-8226 leukemia, 19.7 µM. Further, the TGI came out at 10.7 µM in the test on RXF 393 renal; 22.8 µM with SF-295 CNS; 16.5 µM in the test on SR leukemia; 19.3 µM in the test with SW-620 colon; 19.3 µM with T-47D breast.
`O=c1c(-c2nc3ccccc3c3ccccc3c2=O)nc2ccccc2c2ccccc12`: the TGI with HOP-62 NSCLC, in the test on HOP-92 NSCLC, in the test with KM12 colon, with NCI/ADR-RES ovarian, in the test with OVCAR-8 ovarian and in the test with RPMI-8226 leukemia was more than 100 µM each time. For the same compound, the TGI in the test on RXF 393 renal was 82.9 µM; in the test on SF-295 CNS it was more than 100 µM; in the test with SR leukemia, 61 µM; with SW-620 colon, more than 100 µM; with T-47D breast, more than 100 µM.
Take `NCCCN(CCCCN(CCCN)CCCc1ccccc1)CCCc1ccccc1`: the TGI with HOP-62 NSCLC worked out at 25.4 µM; in the test with HOP-92 NSCLC it was 24.1 µM; in the test on KM12 colon, 6.43 µM; in the test with NCI/ADR-RES ovarian, 43.1 µM; with OVCAR-8 ovarian, 27 µM; with RPMI-8226 leukemia it was 6.15 µM. Further, the TGI was found to be 5.64 µM with RXF 393 renal; 3.16 µM with SF-295 CNS; 7.19 µM in the test with SR leukemia; 10.6 µM in the test with SW-620 colon; 23.5 µM in the test on T-47D breast.
On to `OCCc1ccsc1-c1sc(-c2cc(CCO)c(-c3sc(-c4cc(CCO)c(-c5sccc5CCO)s4)cc3CCO)s2)cc1CCO`, for which the TGI in the test on HOP-62 NSCLC stood at 2.76 µM; in the test with HOP-92 NSCLC, 2.89 µM; in the test with KM12 colon it was 1.9 µM; in the test with NCI/ADR-RES ovarian it was 4.14 µM; with OVCAR-8 ovarian it was 3.13 µM; with RPMI-8226 leukemia it was 2.32 µM. The TGI stood at 1.21 µM in the test on RXF 393 renal; 2.7 µM in the test on SF-295 CNS; 2.59 µM in the test on SR leukemia; 3.98 µM in the test on SW-620 colon; 3.56 µM with T-47D breast.
With `CC(=O)OCC1OC(OCCCOP(=O)(OCCC#N)OCC2OC(n3cnc4c(N)ncnc43)C(OC(=O)c3ccccc3)C2OC(=O)c2ccccc2)C(OC(C)=O)C(OC(C)=O)C1OC(C)=O` (configuration not stated), the concentration for total growth inhibition (TGI) in the test on HOP-62 NSCLC, in the test with HOP-92 NSCLC, in the test on KM12 colon, in the test on NCI/ADR-RES ovarian, in the test on OVCAR-8 ovarian and in the test with RPMI-8226 leukemia was more than 100 µM in each case. The total growth inhibition concentration (TGI) with RXF 393 renal, in the test with SF-295 CNS, in the test on SR leukemia, in the test with SW-620 colon and in the test with T-47D breast was more than 100 µM throughout.
In the case of `CCOC(=O)[C@@]12C[C@](/C=C/OC)(O[Si](C)(C)C)[C@@]13c1cc(OC)c(OC)cc1CCN3C(=O)C2=O`, the TGI in the test on HOP-62 NSCLC, in the test on HOP-92 NSCLC, in the test with KM12 colon, in the test on NCI/ADR-RES ovarian, in the test with OVCAR-8 ovarian and with RPMI-8226 leukemia was more than 100 µM in each case. Moreover, the concentration for total growth inhibition (TGI) in the test on RXF 393 renal, in the test on SF-295 CNS, with SR leukemia, with SW-620 colon and in the test on T-47D breast was more than 100 µM in each case.
Regarding `COc1cc(/C=C(\C)[N+](=O)[O-])cc(OC)c1`, the TGI came out at 33.7 µM in the test on HOP-62 NSCLC; 28.2 µM in the test on HOP-92 NSCLC; 36.8 µM in the test with KM12 colon; 39.8 µM in the test with NCI/ADR-RES ovarian; 29.7 µM with OVCAR-8 ovarian; 9.04 µM in the test with RPMI-8226 leukemia. Further, the total growth inhibition concentration (TGI) in the test on RXF 393 renal was determined as 13.1 µM; with SF-295 CNS, 53.6 µM; with SR leukemia, 7.04 µM; in the test with SW-620 colon it was 9.16 µM; in the test on T-47D breast, 16.3 µM.
As to `CCCC(=O)Nc1cc(C(=O)N2C[C@H]3C[C@@]34C2=CC(=O)c2[nH]cc(C)c24)n(COC)c1`, the GI50 with HOP-62 NSCLC was 104 nM; in the test with HOP-92 NSCLC, 291 nM; with KM12 colon, 282 nM; with NCI/ADR-RES ovarian, 1170 nM; with OVCAR-8 ovarian, 130 nM; in the test on RPMI-8226 leukemia, 176 nM. The GI50 with RXF 393 renal was 106 nM; in the test with SF-295 CNS, 229 nM; with SW-620 colon it was 184 nM. In addition, the total growth inhibition concentration (TGI) is 2.64 µM and 0.728 µM with HOP-92 NSCLC; 2.29 µM and 14.7 µM with KM12 colon; 2.73 µM and 4.64 µM in the test with NCI/ADR-RES ovarian; 0.343 µM and 0.392 µM in the test on OVCAR-8 ovarian; 2.84 µM and 0.776 µM with RPMI-8226 leukemia; 0.0236 µM in the test on SR leukemia. The figures for the total growth inhibition concentration (TGI) in the test with SW-620 colon and in the test with T-47D breast were 82.2 µM and 1.49 µM, respectively.
As to `COc1cccc(NC(=O)CC(=O)NN)c1`, the TGI with HOP-62 NSCLC, in the test with HOP-92 NSCLC, in the test on KM12 colon, in the test with NCI/ADR-RES ovarian, in the test with OVCAR-8 ovarian and in the test with RPMI-8226 leukemia was more than 100 µM throughout. Further, the TGI in the test on RXF 393 renal, in the test with SF-295 CNS, with SR leukemia, in the test with SW-620 colon and in the test on T-47D breast was more than 100 µM in each case.
For `O=C(/C=C/c1ccc(-c2ccccc2)cc1)NCc1ccc(C(=O)NCCc2ccccc2)cc1`, the TGI with HOP-62 NSCLC, in the test on HOP-92 NSCLC, with KM12 colon, in the test with NCI/ADR-RES ovarian, in the test with OVCAR-8 ovarian and in the test with RPMI-8226 leukemia was more than 100 µM in each case. For the same compound, the TGI in the test on RXF 393 renal is 94.9 µM; in the test with SF-295 CNS, more than 100 µM; in the test with SR leukemia, more than 100 µM; in the test on SW-620 colon it was more than 100 µM; in the test with T-47D breast, more than 100 µM.

Values taken from PubChem BioAssay (NCI).
